Structures are written as SMILES.

Data set [1] concerns influenza virus strain A/Puerto Rico/8/34 (H1N1). The class given is cell-based. As to conditions: result in words; for activity against influenza virus strain A/Puerto Rico/8/34 (H1N1): MDCK cells.
For a further data set, the system named is MDCK cells. Briefly: Cytotoxicity in MDCK cells, MTT assay. The data set is classed as cell-based. As to conditions: result in words.

On to `O=C(Cn1nnc(-c2ccccc2)n1)NNc1ncccn1` [Compound 7a, N '-(Pyrimidin-2-yl)-2-(5-phenyl-2 H -tetrazol-2-yl)acetohydrazide], for which, in data set [1], the “activity against influenza virus strain A/Puerto Rico/8/34 (H1N1)” value (from here on “activity”) is given as “did not show activity”.

Consider `Cc1cc(C)nc(NNC(=O)Cn2nnc(-c3ccccc3)n2)n1` [Compound 7b, N '-(4,6-Dimethylpyrimidin-2-yl)-2-(5-phenyl-2 H -tetrazol-2-yl)acetohydrazide], for which the “activity” value in data set [1] is “did not show activity”.

Regarding `c1ccc(-n2nnnc2Sc2ncccn2)cc1` [Compound 12a, 2-[(1-Phenyl-1 H -tetrazol-5-yl)sulfanyl]pyrimidine], the “activity” value in data set [1] is given as “did not show activity”.

With `Cc1cc(C)nc(Sc2nnnn2CC(=O)O)n1` [Compound 12b, {5-[(4,6-Dimethylpyrimidin-2-yl)sulfanyl]-1 H -tetrazol-1-yl}acetic acid], the cytotoxicity result with MDCK cells is recorded as “significantly lower cytotoxicity”. Further, in data set [1] (influenza A H1N1 in MDCK cells), the “SI relative to the reference drug rimantadine” value is recorded as “twice”.

Source of the values: article PMC8118680 (Chemistry of Heterocyclic Compounds, 2021).
